From ChEMBL document CHEMBL1136848, “Parallel medicinal chemistry approaches to selective HDAC1/HDAC2 inhibitor (SHI-1:2) optimization” (Bioorg Med Chem Lett, 2009) come the findings set out here.

One may read the pIC50 as −log10 of the IC50, conventionally taken in molar units. A high value points to a low IC50. Usually bioavailability stands for dose-corrected exposure relative to a reference, in per cent. Low readings indicate little systemic uptake, high ones much systemic uptake. By clearance is commonly meant the rate of elimination divided by the concentration. Higher therefore signals a high capacity for elimination. The half-life is the time in which the quantity being followed falls by half. Low values mean fast loss, high ones slow loss.

The subject of data set [1] is HCT-116. Nature of the data set: Antiproliferative activity against human HCT116 cells expressing HDAC after 96 hrs. It is filed as functional, cell-based. To be noted: for pIC50: HCT-116, 96 h.
A further data set addresses Histone deacetylase 1 (Homo sapiens, UniProt Q13547). The data set is described as follows: Inhibition of C-terminal FLAG-tagged human HDAC1 overexpressed in mammalian cells by plate reader method. The class given is cell-based.
The target in another data set is Histone deacetylase 3 (Homo sapiens, UniProt O15379). Nature of the data set: Inhibition of C-terminal FLAG-tagged human HDAC3 overexpressed in mammalian cells by plate reader method. It is filed as cell-based.
Data set [2] deals with HCT-116. Nature of the data set: Antiproliferative activity against human HCT116 cells expressing HDAC after 72 hrs. To be noted: HCT-116, 72 h. The class given is functional, cell-based.
For data set [3], the target named is T1, Voltage-gated inwardly rectifying potassium channel KCNH2 (Homo sapiens, UniProt Q12809).
A short description of data set [4]: Volume of distribution at steady state in rat at 2 mg/kg, iv. Set-up: dose 2 mg/kg, route intravenous. The note with it: in vivo, read-out: Vdss. It is filed as ADME, organism-based.
Data set [5] in a line: Volume of distribution at steady state in dog at 0.5 mg/kg, iv. It is filed as ADME, organism-based, Canis lupus familiaris. Also noted: dose 0.5 mg/kg, route intravenous. To be noted: in vivo, read-out: Vdss.
Data set [6] can be described thus: Inhibition of calcium ion channel at < 10 uM.
Data set [7] is described as follows: Oral bioavailability in rat at 4 mg/kg. The class given is ADME, organism-based. To be noted: in vivo.
Data set [8] in a line: Increase in acetylated H2B/Total H2B ratio in acute in-vivo HCT116 xenograft model at 25 mg/kg, ip. To be noted: route intraperitoneal. It is filed as functional.
Data set [9] can be described thus: Clearance in rat at 2 mg/kg, iv. It is filed as ADME, organism-based. Also noted: dose 2 mg/kg, route intravenous. To be noted: in vivo.
The nature of data set [10]: Clearance in dog at 0.5 mg/kg, iv. The class given is ADME, organism-based, Canis lupus familiaris. Also noted: dose 0.5 mg/kg, route intravenous. The note with it: in vivo.
The nature of data set [11]: Half life in dog at 0.5 mg/kg, iv. It is filed as ADME, organism-based, Canis lupus familiaris. Also noted: dose 0.5 mg/kg, route intravenous. To be noted: in vivo.
The target in data set [12] is T1, Voltage-gated inwardly rectifying potassium channel KCNH2. Nature of the data set: Inhibition of human ERG at < 10 uM.
Data set [13] can be described thus: Half life in rat at 2 mg/kg, iv. Also noted: dose 2 mg/kg, route intravenous. It is filed as ADME, organism-based. The note with it: in vivo.
A short description of data set [14]: Oral bioavailability in dog at 1 mg/kg, po. To be noted: in vivo. The class given is ADME, organism-based, Canis lupus familiaris.
Data set [15] is described as follows: Volume of distribution in rat plasma. It is filed as ADME, organism-based.
For another data set, the species on record is Homo sapiens. The data set is described as follows: Selectivity ratio of IC50 for C-terminal FLAG-tagged human HDAC3 to IC50 C-terminal FLAG-tagged human HDAC1.
The nature of data set [16]: Bioavailability in rat plasma. It is filed as ADME, organism-based.
The nature of data set [17]: Half life in rat plasma. The class given is ADME, organism-based.
Data set [18] in a line: Clearance in rat plasma. The class given is ADME, organism-based.

pIC50: −log10 of the molar value. The source made the active and inactive calls. The rule behind the calls is not given here. Some results are limits rather than exact numbers.

Sequence of Histone deacetylase 3 (O15379 whole entry): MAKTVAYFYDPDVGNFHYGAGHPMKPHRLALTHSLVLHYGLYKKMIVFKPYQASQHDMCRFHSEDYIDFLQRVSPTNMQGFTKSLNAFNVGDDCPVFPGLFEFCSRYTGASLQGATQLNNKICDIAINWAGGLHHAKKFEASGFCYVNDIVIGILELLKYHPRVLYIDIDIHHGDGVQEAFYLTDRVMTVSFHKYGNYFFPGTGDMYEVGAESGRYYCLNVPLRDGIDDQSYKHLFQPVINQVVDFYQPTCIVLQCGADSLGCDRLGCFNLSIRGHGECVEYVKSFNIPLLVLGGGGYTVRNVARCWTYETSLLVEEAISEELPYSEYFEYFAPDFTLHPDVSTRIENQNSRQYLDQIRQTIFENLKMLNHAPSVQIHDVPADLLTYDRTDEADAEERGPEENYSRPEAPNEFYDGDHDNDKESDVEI
Sequence of Histone deacetylase 1 (Q13547 whole entry): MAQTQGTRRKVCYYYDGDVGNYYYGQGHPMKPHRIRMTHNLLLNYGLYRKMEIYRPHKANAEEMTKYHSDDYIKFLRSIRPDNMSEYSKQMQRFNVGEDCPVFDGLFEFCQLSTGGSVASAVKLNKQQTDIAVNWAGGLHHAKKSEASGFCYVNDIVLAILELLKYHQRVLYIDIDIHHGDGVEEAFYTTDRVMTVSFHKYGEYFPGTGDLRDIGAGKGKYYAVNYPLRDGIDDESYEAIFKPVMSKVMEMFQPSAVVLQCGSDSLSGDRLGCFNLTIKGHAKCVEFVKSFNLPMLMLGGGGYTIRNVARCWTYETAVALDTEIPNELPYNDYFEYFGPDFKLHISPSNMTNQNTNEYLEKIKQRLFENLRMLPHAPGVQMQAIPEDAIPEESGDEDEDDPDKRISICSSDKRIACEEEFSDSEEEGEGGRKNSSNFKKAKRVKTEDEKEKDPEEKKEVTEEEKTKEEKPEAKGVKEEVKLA
T1 sequence (Q12809 whole entry): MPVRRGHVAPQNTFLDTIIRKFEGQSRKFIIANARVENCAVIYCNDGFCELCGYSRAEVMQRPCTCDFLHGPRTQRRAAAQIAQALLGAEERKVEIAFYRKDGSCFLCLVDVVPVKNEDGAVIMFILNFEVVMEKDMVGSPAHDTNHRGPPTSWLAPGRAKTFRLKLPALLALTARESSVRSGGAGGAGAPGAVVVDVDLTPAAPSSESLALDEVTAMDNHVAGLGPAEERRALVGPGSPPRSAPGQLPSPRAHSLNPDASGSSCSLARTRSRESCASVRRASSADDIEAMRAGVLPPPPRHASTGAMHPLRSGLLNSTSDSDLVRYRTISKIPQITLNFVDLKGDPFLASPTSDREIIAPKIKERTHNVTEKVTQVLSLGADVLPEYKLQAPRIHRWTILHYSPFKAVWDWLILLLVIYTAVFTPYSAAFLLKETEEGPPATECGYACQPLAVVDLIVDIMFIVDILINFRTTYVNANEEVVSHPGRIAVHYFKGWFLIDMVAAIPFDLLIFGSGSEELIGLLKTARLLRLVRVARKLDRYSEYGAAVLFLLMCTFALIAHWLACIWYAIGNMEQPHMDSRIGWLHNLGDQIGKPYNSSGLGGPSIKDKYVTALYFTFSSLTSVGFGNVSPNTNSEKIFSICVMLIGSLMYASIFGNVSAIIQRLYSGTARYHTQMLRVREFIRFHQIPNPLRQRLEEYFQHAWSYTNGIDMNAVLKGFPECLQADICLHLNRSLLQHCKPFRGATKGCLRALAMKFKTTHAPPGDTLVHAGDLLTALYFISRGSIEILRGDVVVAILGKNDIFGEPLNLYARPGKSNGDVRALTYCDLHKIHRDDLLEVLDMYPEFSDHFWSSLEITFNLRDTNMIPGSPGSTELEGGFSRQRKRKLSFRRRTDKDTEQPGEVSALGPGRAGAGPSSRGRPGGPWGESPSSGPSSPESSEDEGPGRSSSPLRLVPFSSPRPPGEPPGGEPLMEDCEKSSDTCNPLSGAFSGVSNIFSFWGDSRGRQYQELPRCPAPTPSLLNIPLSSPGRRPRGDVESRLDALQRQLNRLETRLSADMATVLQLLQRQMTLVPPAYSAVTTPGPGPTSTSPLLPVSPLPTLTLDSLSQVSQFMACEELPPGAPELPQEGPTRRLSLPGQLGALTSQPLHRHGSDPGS

Regarding `O=C(Nc1cc(F)ccc1O)c1ccc(CNc2ccncc2)cc1`, the outcome in the data set with HCT-116 [1] was inactive. The pIC50 against Histone deacetylase 1 was 5.70.

For the molecule `CC(NCc1ccc(C(=O)Nc2cc(-c3ccccc3)ccc2O)cc1)c1ccncc1` (stereo unspecified), the pIC50 is 5.74 in the data set with HCT-116 [1] and 7.89 at Histone deacetylase 1.

Turning to `Nc1ccc(-c2cccc(F)c2)cc1NC(=O)c1ccc(CN2CCC3(CCCN3)CC2)cc1`, the negative-log IC50 (pIC50) against Histone deacetylase 3 is 5.24; in the data set on HCT-116 [2], 5.97; on Histone deacetylase 1 it was 7.33.

For the molecule `Nc1ccc(-c2ccccc2F)cc1NC(=O)c1ccc(C(=O)N2CCC3(CCCN3)CC2)cc1`, the pIC50 against Histone deacetylase 3 was < 4.30; in the data set on HCT-116 [2] it was 6.54; against Histone deacetylase 1, 7.96.

`Nc1ccc(-c2ccccc2F)cc1NC(=O)c1ccc(CN2CCC3(CCCN3)CC2)cc1`: the negative logarithm of the IC50 (pIC50) on Histone deacetylase 3 was 4.76; in data set [3], 6.74; in the data set with HCT-116 [2] it was 6.33; at Histone deacetylase 1, 7.80.

On to `Nc1ccc(-c2cccs2)cc1NC(=O)c1ccc(C(=O)N2CCC3(CCCN3)CC2)cc1`, for which the pIC50 against Histone deacetylase 3 is 5.36; in data set [3], 4.60; with HCT-116 [2], 7.15; against Histone deacetylase 1 it was 7.96.

As for `Nc1ccc(-c2ccccc2)cc1NC(=O)c1ccc(C(=O)N2CCC3(CCCN3)CC2)cc1`, the Vd stood at 14 L/kg in [4] and 5.1 L/kg in data set [5]. In data set [6], the outcome was inactive. Also, the bioavailability was found to be 17% in data set [7] and 4% in data set [14]. Also, the “fold change (FC)” value in [8] is recorded as 3. Further, the pIC50 on Histone deacetylase 3 was 5.29; in data set [3], 4.91; in the data set with HCT-116 [2], 6.99; against Histone deacetylase 1 it was 8.10. The clearance in data set [9] came out at 26 mL/min/kg; in data set [10], 8.2 mL/min/kg. Moreover, the half-life in data set [11] was 8.5 h; in data set [13] it was 7 h. For the same molecule, the Activity result in data set [12] was “Not Active”.

The molecule `COc1cccc(CNCc2ccc(C(=O)NO)cc2)c1` showed a negative logarithm of the IC50 (pIC50) against Histone deacetylase 1 of 6.32.

At Histone deacetylase 1, `O=C(NO)c1ccc(CNC2CCCCC2)cc1` showed a negative-log IC50 (pIC50) of 4.62.

Regarding `O=C(Nc1ccccc1O)c1ccc(CNc2ccncc2)cc1`, the outcome with HCT-116 [1] was inactive. The same molecule gave a pIC50 on Histone deacetylase 1 of 5.80.

Regarding `Nc1ccc(-c2ccccc2)cc1NC(=O)c1ccc(CNc2ccncc2)cc1`, the pIC50 on Histone deacetylase 3 is 5.19; with HCT-116 [2] it was 5.76.

In turn, `O=C(Nc1cc(-c2ccccc2)ccc1O)c1ccc(CNc2ccncc2)cc1` gave a negative-log IC50 (pIC50) in the data set on HCT-116 [1] of 5.76.

In the case of `O=C(NO)c1ccc(CNc2ccc(Cl)cc2)cc1`, at Histone deacetylase 1, the negative logarithm of the IC50 (pIC50) was 5.79.

With `O=C(Nc1cc(Br)ccc1O)c1ccc(CNc2ccncc2)cc1`, in the data set with HCT-116 [1], the result was inactive. The molecule further gave a negative-log IC50 (pIC50) at Histone deacetylase 1 of 5.28.

Regarding `Nc1ccc(-c2ccccc2)cc1NC(=O)c1ccc(CN2CCC3(CCNC3)CC2)cc1`, the pIC50 against Histone deacetylase 3 was 5.16; in the data set on HCT-116 [2] it was 6.51; against Histone deacetylase 1, 7.48.

At Histone deacetylase 1, `O=C(NO)c1ccc(CNCCc2cccc(Cl)c2)cc1` gave a negative-log IC50 (pIC50) of 6.00.

In turn, `Nc1ccc(-c2ccccc2)cc1NC(=O)c1ccc(CN2CCC3(CCCN3)CC2)cc1` yielded a Vd in data set [15] of 22 L/kg. In the data set listed under Homo sapiens, the Ratio IC50 worked out at 2000. Besides, the pIC50 at Histone deacetylase 3 was 4.78; in the data set on HCT-116 [2], 6.93; against Histone deacetylase 1, 8.10. The molecule further showed a bioavailability in data set [16] of 70%. This molecule also showed a half-life in data set [17] of 8 h. The molecule further showed a clearance in data set [18] of 45 mL/min/kg.

Consider `O=C(NO)c1ccc(CNCc2cccc(Cl)c2)cc1`, for which the negative logarithm of the IC50 (pIC50) at Histone deacetylase 1 was 6.46.

Take `Nc1ccc(-c2cccs2)cc1NC(=O)c1ccc(CN2CCC3(CCCN3)CC2)cc1`: the negative-log IC50 (pIC50) on Histone deacetylase 3 was 5.02; in data set [3], 5.80; in the data set on HCT-116 [2], 7.09; at Histone deacetylase 1, 8.40.

As for `Cc1ccc(O)c(NC(=O)c2ccc(CNc3ccncc3)cc2)c1`, the outcome with HCT-116 [1] was inactive. In addition, the pIC50 against Histone deacetylase 1 is 4.69.

In the case of `COc1ccc(O)c(NC(=O)c2ccc(CNc3ccncc3)cc2)c1`, in the data set on HCT-116 [1], the result was inactive. Also, at Histone deacetylase 1, the pIC50 is 5.10.

Turning to `CN(Cc1ccc(C(=O)Nc2cc(-c3ccccc3)ccc2N)cc1)c1ccncc1`, the pIC50 against Histone deacetylase 3 was 5.27; with HCT-116 [2] it was 5.44.

In the case of `Nc1ccc(-c2ccc(F)cc2)cc1NC(=O)c1ccc(C(=O)N2CCC3(CCCN3)CC2)cc1`, the pIC50 was 5.49 against Histone deacetylase 3, 6.86 in the data set on HCT-116 [2] and 7.92 at Histone deacetylase 1.

Turning to `O=C(Nc1cc(Cl)ccc1O)c1ccc(CNc2ccncc2)cc1`, the outcome in the data set with HCT-116 [1] was inactive. For the same molecule, the pIC50 against Histone deacetylase 1 was 5.30.

For the molecule `Nc1ccc(-c2ccsc2)cc1NC(=O)c1ccc(CN2CCC3(CCCN3)CC2)cc1`, the pIC50 on Histone deacetylase 3 is 5.06; in the data set on HCT-116 [2] it was 7.14; on Histone deacetylase 1 it was 8.10.

Turning to `CC(C)CNCc1ccc(C(=O)Nc2cc(-c3ccccc3)ccc2O)cc1`, in the data set on HCT-116 [1], the result was inactive.

With `O=C(Nc1cc(-c2ccccc2)ccc1O)c1ccc(CNCc2cccnc2)cc1`, the pIC50 in the data set with HCT-116 [1] was 5.87.

Take `Nc1ccc(-c2ccc(F)cc2)cc1NC(=O)c1ccc(CN2CCC3(CCNC3)CC2)cc1`: the negative-log IC50 (pIC50) was 5.32 against Histone deacetylase 3, 6.63 in data set [3], 6.56 with HCT-116 [2] and 7.89 against Histone deacetylase 1.

On to `O=C(Nc1cc(-c2ccccc2)ccc1O)c1ccc(CNCCc2ccccc2)cc1`, for which, in the data set with HCT-116 [1], the outcome was inactive.
